Tests used:
Format in all cases: in vivo
[1] = test system: C. rosea f. catenulata J1446; assay: Hyphal growth of C. rosea f. catenulata J1446 from strawberry leaf discs onto agar plates (greenhouse); conditions: discs cut 1, 2, 3, 6 days after greenhouse incubation, growth on plate 6 days; germinant added to Prestop® 0.025%; FIG. 2
Experimental: (§1) Young strawberry plants (Fragaria×ananassa; “Merced” variety) were allowed to grow at least a week before plants were selected for experiments by healthy appearance and having large leaves facing upwards. Spore counts for C. rosea f. catenulata J1446 in the package of Prestop WG used were calculated via haemocytometer to be 1.4×10^10 spores/g and viability of the spores was checked using the MPN (most probably number) method and C. rosea f. catenulata J1446 was calculated to be 3×10^9 CFU/g. […] On average, 0.5 ml of treatment was calculated to be applied per plant. […] The number of spores obtained from each slip was counted using a hemocytometer to determine deposition rate. […]
Two 6 mm leaf discs were cut using a sterilized staples hole punch from two different leaves per plant from five sprayed plants per treatment per time period (1, 2, 3, and 6 days after spraying) and placed adaxial side downwards onto paraquat-chloramphenicol agar (PCA) medium (0.1 mL paraquat, 200 mg chloramphenicol, and 12 g agar per liter of water). […] Growth around the leaf disc was measured with a ruler and recorded as average diameter of growth per day. […] Averages in treatments were analyzed.
Data for growth bioassays from 1, 2, 3, and 6 days of greenhouse incubation were all normal when distribution was analysed. […] Multiple comparisons of the mean (alpha=0.05) were analysed using a Tukey post hoc test.

[2] = test system: apple scab (Venturia inaequalis); assay: Apple scab foliar symptoms on potted Gala apple trees (Example 6)
Experimental: The trial was carried out on potted trees of the Gala variety. Six trees per treatment were reserved for this test.
Two application strategies were tested: (a) one application four days before pathogen inoculation; and (b) a first application four days before pathogen inoculation and a second application after pathogen inoculation when a cumulative of 300° C./hour was reached after the inoculation.
A solution of conidia of V. inaequalis was prepared from 2018 scabbed leaves stored in the freezer. The trees were kept under fog for at least one hour before contamination and then at least 12 hours afterwards. The duration was adapted according to ambient temperature and humidity. The spray volume was defined after a blank test to cover sufficient vegetation without reaching the runoff point (between 30 and 50 mL/tree). The treatments were applied using a hand-held sprayer and carried out four days before inoculation with the pathogen (strategies (a) and (b)) and within 300° C./H after inoculation for strategy (2) only.
The frequency and intensity of foliar symptoms of scab were observed. Observation was carried out four to five days after the start of the first spots, using a 0 to 4 rating scale. Trees were scored individually and were made on all the leaves of each tree.

[3] = test system: Botrytis cinerea; assay: Greenhouse control of Botrytis cinerea on tomato plants (Example 2); conditions: Prestop® 0.003% combined with glycine betaine 0.05% or 0.2%, 5 days, necrotic area width, FIG. 3
Experimental: Botrytis cinerea was grown on potato dextrose broth for 1 to 2 weeks without shaking. The resulting mycelial and spores were recovered to produce a liquid inoculum.
Tomato plants, variety Admiro (stage: 3-leaf), were sprayed with the B. cinerea inoculum (5000 sp/ml) then allowed to dry. Then, the treatments were applied by spraying the inoculated tomato plants.
The following treatments were tested (9 repetitions): (T1) Prestop® (C. rosea f. catenulatum J1446) 0.003%; (T2) Prestop® (C. rosea f. catenulatum J1446) 0.003%+glycine betaine (Intracell®, Lallemand) 0.05%; (T3) Prestop® (C. rosea f. catenulatum J1446) 0.003%+glycine betaine (Intracell®, Lallemand) 0.2%; (T4) glycine betaine (Intracell®, Lallemand) 0.2% and (T5) water.
Colby's equation was used to determine the effects expected from the components, as described above. The results were measured at 5 days after the application of the components.

[4] = test system: C. rosea f. catenulata J1446 spores; assay: Percent germination of C. rosea f. catenulata J1446 on strawberry leaf discs; conditions: after 24 h on strawberry leaf discs; germinant added to Prestop® 0.025% (glycine betaine 0.06%/0.6%, yeast extract 0.04%/0.2%) vs Prestop® alone; FIG. 1
Experimental: as §1
On the same day, after spraying, two 6 mm leaf discs were cut using a sterilized staples hole punch from two different leaves per plant from five sprayed strawberry plants per treatment group per time period (6, 7, 8 and 24 h) and then dyed with 5 ul lactophenol cotton blue. […] Three viewing areas were chosen at random on each leaf disc and 100 spores were counted: the number that germinated (germ tubes visible at twice the length of the spore) out of that 100 was recorded. Average germination percentages were analyzed per treatment group and per time period.
Data for percent germination assays on strawberry leaves was normal when the distribution was analyzed for both greenhouse and environmental chamber studies. […]

C[N+](C)(C)CC(=O)[O-] [glycine betaine]
colonization of leaf discs by C. rosea J1446 [1]: significantly increased | Frequency of foliar symptoms of scab ([2]; one application four days before inoculation + a second application after inoculation when a cumulative of 300° C./hour was reached): 58.5% | Frequency of foliar symptoms of scab ([2]; one application four days before inoculation with the pathogen): 59.6% | efficacy of Prestop® to control B. cinerea [3]: increased | percentage of spore germination of C. rosea J1446 [4]: increased

From patent US20220159969A1, “COMPOSITION AND METHOD FOR ENHANCING SPORE GERMINATION AND BIOLOGICAL EFFICACY” (priority 2019, published 2022)
